Reference: patent US6362328B1, “Assays and probes with enzyme labels” (London Biotechnology Limited, priority 1996, dated 2002)

Experiments:
[1] = system: endogenous "FADPase" in the apoglucose oxidase; experiment: Effect of p-nitrophenyl phosphate on background color generation in the absence of nuclease P1; type: biochemical; settings: p-nitrophenyl phosphate at concentrations up to approximately 5 mM; no nuclease P1; FIG. 3
Protocol: (§1) The effect of the added p-nitrophenyl phosphate on the background color generation in the absence of nuclease P1 was also noted. This background is due to endogenous “FADPase” in the apoglucose oxidase used in the assay. At concentrations up to approximately 5 mM, added p-nitrophenyl phosphate has no effect on nuclease P1, but reduces the background signal by 80-100% (FIG. 3).

[2] = target: T1, nuclease P1 (Penicillium citrinum, UniProt P24289); experiment: Effect of p-nitrophenyl phosphate on the activity of nuclease P1; type: biochemical; design: purchased Sigma Chemical Company; settings: p-nitrophenyl phosphate at concentrations up to approximately 5 mM; FIG. 3
T1 sequence (P24289 1-270): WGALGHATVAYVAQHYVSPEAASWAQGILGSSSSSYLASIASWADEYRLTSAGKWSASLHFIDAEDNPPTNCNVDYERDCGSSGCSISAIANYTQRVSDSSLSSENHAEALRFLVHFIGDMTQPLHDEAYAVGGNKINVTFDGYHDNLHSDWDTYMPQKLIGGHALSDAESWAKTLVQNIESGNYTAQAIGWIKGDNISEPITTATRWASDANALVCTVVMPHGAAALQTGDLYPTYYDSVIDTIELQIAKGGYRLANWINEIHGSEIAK
Protocol: as §1

[3] = target: T1, nuclease P1; settings: phosphate 0 to 10 mM; nuclease P1 at pH 6.5, alkaline phosphatase at pH 8.9; FIG. 2
Protocol: A solution of nuclease P1 standardized according to Example 1 was serially diluted in 50 mM citrate buffer adjusted to pH 6.5 with NaOH. The assay mixture contained 20 μM 3′FADP, 0.1 mM 4-aminoantipyrine, 2 mM DHSA, 1 μg horseradish peroxidase, 0.1 M glucose and 0.1 μM apoglucose oxidase in a total volume of 0.1 ml. The change in absorbance was monitored at 520 nm in a Dynatech MR7000 plate reader fitted with a thermostatically controlled plate holder set to 25° C.

[4] = Standardization of nuclease P1 (coupled NADH assay, absorbance at 340 nm); type: biochemical; settings: 22.7 μM solution (1 mg in 1 ml water); 50 mM HEPES pH 7.2; molar extinction coefficient of 6220 for NADH assumed
Protocol: Nuclease P1 (1 mg; obtained from Sigma Chemical Company, batch no: 107F0799) was dissolved in 1 ml of water to give a concentration of 22.7 μM and stored at 4° C. The activity of this solution was assayed in the following mixture: 0.16 mM NADH, 1 mM ATP, 1 mM PEP, 1 mM MgSO4, 20 mM KCl, 0.5 mM adenosine 3′,5′-bisphosphate, 1 U pyruvate kinase, 1 U lactate dehydrogenase and 1 U myokinase in 50 mM HEPES buffer, pH 7.2, in a total volume of 1 ml.

## O=[N+]([O-])c1ccc(OP(=O)(O)O)cc1 [p-nitrophenyl phosphate]
[1]
  reduction of background signal: 80-100%
[2]
  effect on nuclease P1 activity: no effect

## phosphate
[3]
  effect of phosphate on enzyme activity: less of an effect on nuclease P1 than on alkaline phosphatase

B1: Nuclease P1: enzyme obtained from Sigma Chemical Company, used as enzyme label (protein, UniProt P24289 1-270, looked up)
Nuclease P1: WGALGHATVAYVAQHYVSPEAASWAQGILGSSSSSYLASIASWADEYRLTSAGKWSASLHFIDAEDNPPTNCNVDYERDCGSSGCSISAIANYTQRVSDSSLSSENHAEALRFLVHFIGDMTQPLHDEAYAVGGNKINVTFDGYHDNLHSDWDTYMPQKLIGGHALSDAESWAKTLVQNIESGNYTAQAIGWIKGDNISEPITTATRWASDANALVCTVVMPHGAAALQTGDLYPTYYDSVIDTIELQIAKGGYRLANWINEIHGSEIAK
[4]
  activity of nuclease P1 solution: 320 U/ml
